Columns and labels:
[1] = molecular target: T1, PT-biotin binding to fetuin (Bos taurus, UniProt P12763); assay: PT-biotin binding to fetuin, binding inhibition assay; set-up: species or system Bordetella pertussis; conditions: peptide mg/mL: S2PL 1.2, ACS2P1 1.0, S2(14-2.3) 1.0, S2P2 1.1, S2P3 0.51, S2P4 0.98, S2P6 0.85, S3P1 3.2, S3P2 3.1, S3P3 4.5, S3P4 3.3, S3P5 0.48, S3P9a 1.7, SPYGRC 4.4, S2(WGA) 1.0, WGA (62-73) 1.0; + enhancement, − inhibition
T1 construct: purchased Sigma Chemical Company (fetuin); Connaught Center for Biotechnology Research (PT)
T1 sequence (P12763 19-359): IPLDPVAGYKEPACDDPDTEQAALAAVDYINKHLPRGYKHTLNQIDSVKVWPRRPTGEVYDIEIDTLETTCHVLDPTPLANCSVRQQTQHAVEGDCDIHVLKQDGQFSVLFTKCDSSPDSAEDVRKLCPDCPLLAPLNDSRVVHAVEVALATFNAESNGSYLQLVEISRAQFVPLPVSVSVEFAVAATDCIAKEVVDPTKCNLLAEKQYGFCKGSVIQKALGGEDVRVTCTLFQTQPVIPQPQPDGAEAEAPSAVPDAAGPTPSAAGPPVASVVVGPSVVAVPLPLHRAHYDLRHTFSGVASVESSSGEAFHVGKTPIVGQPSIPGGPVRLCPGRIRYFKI
Method: (§1) Peptides ranging in concentration from 0.5 to 4.5 mg/ml in PBS (40 μl) were added to each well and PT-biotin (10 μl containing 10 ng in PBS) was then added to the microtiter wells. […] Horseradish peroxidase-conjugated avidin (100 μl, 1/3000 dilution in PBST to a concentration of 0.3 μg/ml) was then added to the wells, and the plates were incubated at ambient temperature for 1 hour. […] Color development was recorded at 405 nm using a Titertek Multiskan MC plate reader. […] Binding assays for each peptide were done in duplicate. Binding inhibition experiments utilizing SNA-, WGA-, and MAL-biotin were performed as described above using 10 ng of each biotinylated lectin in PBS.
(§2) Binding assays for each inhibitor concentration were done at least in duplicate, and the average value varied less than 15%.

[2] = molecular target: T2, MAL-biotin binding to fetuin (Bos taurus, UniProt P12763); assay: MAL-biotin binding to fetuin, binding inhibition assay; set-up: species or system Maackia amurensis; conditions: peptide mg/mL: S2PL 1.2, ACS2P1 1.0, S2(14-2.3) 1.0, S2P2 1.1, S2P3 0.51, S2P4 0.98, S2P6 0.85, S3P1 3.2, S3P2 3.1, S3P3 4.5, S3P4 3.3, S3P5 0.48, S3P9a 1.7, SPYGRC 4.4, S2(WGA) 1.0, WGA (62-73) 1.0; + enhancement, − inhibition
T2 construct: purchased Sigma Chemical Company (fetuin); Boehringer Mannheim (MAL-biotin)
T2 sequence (P12763 19-359): T1 sequence (P12763 19-359)
Method: as §1, §2

[3] = molecular target: T3, SNA-biotin binding to fetuin (Bos taurus, UniProt P12763); assay: biochemical
T3 sequence (P12763 19-359): T1 sequence (P12763 19-359)
Method: The solution was removed by aspiration and replaced with 100 μl of 1% BSA in PBS containing 0.05% Tween 20 (PBST). After incubation for 2-4 hours at room temperature, the microtiter wells were washed four times with 300 μl of PBST. Peptides ranging in concentration from 0.5 to 4.5 mg/ml in PBS (40 μl) were added to each well and PT-biotin (10 μl containing 10 ng in PBS) was then added to the microtiter wells. After incubating for 1 hour, the binding reaction was stopped by aspirating the solutions and the plate was washed with PBST (300 μl). Horseradish peroxidase-conjugated avidin (100 μl, 1/3000 dilution in PBST to a concentration of 0.3 μg/ml) was then added to the wells, and the plates were incubated at ambient temperature for 1 hour. After washing the wells as described above, the substrate solution [1 mM ABTS in 5 mM citrate buffer, pH 4.2, containing 0.1% hydrogen peroxide, v/v) was added and the plates were incubated for 30 minutes. Color development was recorded at 405 nm using a Titertek Multiskan MC plate reader. Maximum binding was determined in the absence of peptide, and background binding was measured in wells coated with BSA only. Binding assays for each peptide were done in duplicate. Binding inhibition experiments utilizing SNA-, WGA-, and MAL-biotin were performed as described above using 10 ng of each biotinylated lectin in PBS.

[4] = tested on: pertussis toxin binding to Chinese Hamster ovary (CHO) cell; assay: CHO cell neutralization of pertussis toxin (cell clumping); assay type: cell-based; conditions: PT 2.4 ng/ml, peptide and PT 1 hour, triplicate
Method: Confluent monolayers of CHO cells were lifted from plastic tissue culture flasks with 0.25% trypsin and suspended at a concentration of 5×10^4 cells/ml in Ham's F12 media containing 10% fetal bovine serum (FBS). 100 μl of the cell suspension was added to 96 well tissue culture plates and were allowed to establish contact with the plastic for 24 to 48 hours. The expended media was then removed and filtered-sterilized peptide 5-fold dilutions ranging in concentration from 300 to 30 femptogram per ml (80 μl) in Ham' F12 media containing FBS were added to the CHO cells. […] The incubation mixtures were gently mixed and incubated at 37° C. for 1 hour in a CO2 incubator. The incubation mixtures were then removed and replaced with fresh media. The tissue culture plates were then incubated for 24 hours at 37° C., fixed with 100% methanol, and stained with Geimsa stain. Control experiments were done in the absence of peptide alone or in the absence of PT. All determinations were done in triplicate. […] The results reported in Table VIII show the maximum peptide concentration required to cause a 50% reduction in CHO cell clumping.

Balb/c mice [5] = assay: DTH inflammatory response, mouse footpad swelling assay; assay type: in vivo; conditions: 100 μg peptide into the tail vein 5 hours after challenge with 20 μg OVA; FIG. 2
Method: DTH inflammatory responses were measured using the mouse footpad swelling assay as described by Smith and Ziola^64. Briefly, groups of Balb/c mice (about 19-20 grams each) were immunized with 100 μg of the OVA antigen containing 20μg of the adjuvant (DDA—dimethyl-dioctadecylammonium bromide) which also induces a strong inflammatory DTH response. Seven days later, each group of mice was footpad-challenged with 20 μg of the OVA antigen (without adjuvant). The resulting inflammatory footpad swelling was measured with a Mitutoyo Engineering micrometer 24 hours after challenge.
To assess the effect of different peptides on the inflammatory DTH response, groups of mice received 100 μg of the following peptides- ACS2P1 (2275), SPYGRC (2283), and S3P9a. These peptides were injected as a solution into the tail vein, 5 hours after challenge. Control groups were left untreated or received 100 μL of phosphate-buffered saline (PBS).

Balb/c mice [6] = assay: Persistence of suppression of DTH response on OVA re-challenge at 2 weeks; assay type: in vivo; conditions: mice treated as in Example 11, re-challenged at 2 weeks; FIG. 3
From the text: Identical groups of mice treated with the peptides in Example 11 above, were re-challenged with OVA antigen 2 weeks after primary immunization.

## CC(C)C[C@H](NC(=O)[C@H](CC(C)C)NC(=O)[C@@H](N)CCCNC(=N)N)C(=O)N[C@@H](C)C(=O)N[C@@H](CO)C(=O)N[C@H](C(=O)N[C@@H](CC(N)=O)C(=O)N[C@@H](CO)C(=O)N[C@@H](CCCNC(=N)N)C(=O)N[C@@H](CC(C)C)C(=O)N[C@@H](CS)C(=O)N[C@@H](C)C(=O)N[C@H](C(=O)N[C@@H](Cc1ccccc1)C(=O)N[C@H](C(=O)N[C@@H](CCCNC(=N)N)C(=O)N[C@@H](CC(=O)O)C(=O)NCC(=O)O)C(C)C)C(C)C)[C@@H](C)O [Peptide S3P9a]
[1]
  Percent Changes in Binding Activity PT/fetuin: +328 ± 10%
[2]
  Percent Changes in Binding Activity MAL/fetuin: +18 ± 6%
[3]
  IC50: 2740 ± 860 µM
[3]; peptide mg/mL: S2PL 1.2, ACS2P1 1.0, S2(14-2.3) 1.0, S2P2 1.1, S2P3 0.51, S2P4 0.98, S2P6 0.85, S3P1 3.2, S3P2 3.1, S3P3 4.5, S3P4 3.3, S3P5 0.48, S3P9a 1.7, SPYGRC 4.4, S2(WGA) 1.0, WGA (62-73) 1.0, + enhancement, − inhibition
  Percent Changes in Binding Activity SNA/fetuin: −41 ± 3%
[4]
  Maximal Inhibitory Concentration for Greater than 50% Inhibition: NI (Not inhibitory at a peptide concentration of 300 ng/ml.)
Balb/c mice [5]
  effect on DTH inflammatory response (footpad swelling 24 hours after challenge), in words: effective in reducing a DTH response in mice
Balb/c mice [6]
  DTH response (footpad swelling) on later re-challenge with OVA antigen, in words: reduced immune response
